Assay results taken from patent publication US20260265055A1, “Sulfine-Based Compounds for Generating Hydrogen Persulfide” (Brown University, priority 2023, published 2026).

Tests used:
[1] = SSP4 fluorescence assay to determine generation of H2S2 in buffer; details: SSP4 5 μM
From the text: To further evaluate the specificity of TTS in converting H2S to H2S2, SSP4 was used to monitor the formation of H2S2 in this reaction and the results were compared with a series of controls. Details of the SSP4 experiments are provided later herein. SSP4 is a well-established fluorescent sensor for sulfane sulfurs including H2S2. See Shieh, M. et al., Shining a light on SSP4: a comprehensive analysis and biological applications for the detection of sulfane sulfurs. Redox Biol. 2022, 56, 102433. […] Without wishing to be bound by scientific theory, it is believed that thiols would compete with SSP4 to react with H2S2, thereby causing decreased signals.
SSP4 was dissolved in DMSO to obtain a 200 μM stock solution. CTAB was dissolved in ethanol to yield a 2 mM stock solution. TTS and TT were dissolved in DMSO to make 1 mM stock solutions. Na2S, Na2S2, and L-cysteine were prepared in MilliQ H2O to obtain stock solutions at 2 mM, 1 mM, and 4 mM, respectively. 50 mM PBS buffer was added to individual wells of a black polystyrene, flat-bottomed clear 96-well plate, followed by TTS (25 μM) or TT (25 μM), and Na2S (50 μM), cysteine (100 μM), or Na2S2 (25 μM). For the interference assay, TTS or TT (25 μM) were added to wells with or without Na2S (50 μM). Samples were mixed by pipetting up and down and incubated in the dark at room temperature (rt) for 30 min. Next, CTAB (50 μM) was added to all wells followed by SSP4 (5 μM), and samples were mixed by pipetting up and down. The final volume was 200 μL in each well. Samples were then incubated in the dark at room temperature for another 30 min before being measured on a Molecular Devices SpectraMax iD3 Multi-Mode Microplate Reader (emission 525 nm; excitation 485 nm; integration time […], low PMT sensitivity, attenuation 1, read height 1.00 mm).

[2] = test system: HeLa cells; assay: Live cell imaging of H2S2 formation with SSP4; format: cell-based; details: 30 min
Protocol: HeLa cells were seeded at ~7000 cells/well in a 96-well clear flat-bottomed BioLite plate (ThermoFisher Scientific, #130188) in DMEM/F12 (1:1) (Gibco, Invitrogen, #11330-032) medium supplemented with 10% fetal bovine serum (FBS) at 37° C., 5% CO2 overnight.
Preparation before cell treatment: Na2S and Na2S2 stocks were prepared at 10 mM in sterile 1×PBS. TTS and TT were prepared at 10 mM concentrations in DMSO. They were then diluted to 50 μM concentrations in serum-free Fluorobrite DMEM in individual Eppendorf tubes (0.5% DMSO). Na2S (final concentration=100 μM) was added to the Eppendorf tube containing Fluorobrite DMEM and TTS or TT immediately before being added to the cells. Compounds were mixed by pipetting up and down prior to cell addition.
Cell treatment: Culturing media was aspirated from all wells, and cells were washed twice with 1×PBS. Compounds were added to cells (200 μL/well) and incubated for 30 min at 37° C., 5% CO2. While cells were incubating, SSP4 treatment was prepared by first adding 5 mM CTAB in ethanol to Fluorobrite DMEM followed by 6.125 mM SSP4 in DMSO to final concentrations of 100 μM and 5 μM, respectively, in a tube. The final volume was 5 mL (0.08% DMSO). Compounds were mixed by pipetting up and down prior to cell addition. After incubation, media was aspirated, and cells were washed twice with 1×PBS. SSP4 treatment was added to all wells (100 μL/well), and cells were incubated for 30 min at 37° C., 5% CO2 for 30 min. Media was then aspirated, and cells were washed three times with 1×PBS. Fluorobrite DMEM was added to all wells before imaging on the Keyence All-in-One Fluorescence Microscope (BZ-X810) (excitation: 470/40 nm; emission: 525/50 nm).
As shown in FIGS. 4(A)-(D), HeLa cells were treated with TTS, TTS+H2S, or TT for 30 min before the fluorescent sensor SSP4 was applied to the cells to monitor the formation of H2S2. […] Na2S2 was used as the positive control in this study (FIG. 4D). Other control studies including TT+H2S, H2S only, and SSP4 only were also performed. […] FIG. 4H is a graph of fluorescence intensities of SSP4 staining. Data are mean values ±SEM calculated using ImageJ. (n=9, where three different images were obtained from each of three samples and quantified).

[3] = NMR monitoring of the oxidation of TT to TTS; format: physicochemical; details: TT 20 mM in CD3CN/D2O (1:1) with H2O2, room temperature
Protocol: To an NMR tube, the solution of TT (0.2 mmol, final concentration is 20 mM) in CD3CN/D2O (1:1) was added, followed by adding H2O2 (10 μM, 20 μM). The NMR tube was shacked immediately and incubated at room temperature for 0 min, 30 min, 3 h, and 24 h.
(§1) The transformation from TT to TTS was clean. The progress of the reaction was monitored by UV-Vis spectra and the reaction rate constant (k2) was measured to be […]. The oxidation of TT by several other oxidants including t-BuOOH, AcOOH, and OCl^− was measured and the TT oxidation rate constants k2 are summarized in Table 1. ^aThe rate constant was estimated.

[4] = Oxidation of TT to TTS by ROS, UV-Vis (339 nm); format: physicochemical; details: for k2 (TT oxidation rate constant): PBS pH 7.4
Protocol: TT was treated with H2O2, the most prevalent oxidant in biology. Stock solutions for hydrogen peroxide (H2O2), t-butyl hydroperoxide (^tBuOOH), peracetic acid (AcOOH), and sodium hypochlorite (NaOCl), were prepared in deionized water. H2O2 was diluted from a commercially available solution (30%). The concentration of H2O2 was determined using the absorption at 240 nm (ε=[…]). ^tBuOOH was diluted from commercially available solutions (70%). AcOOH was diluted from commercially available solutions (32%). NaOCl was diluted from commercially available solution containing 11-15% available chlorine. The concentration of HOCl was determined using the absorption at 292 nm (ε=[…]).
TT was dissolved in DMSO to afford a 10 mM stock solution. For H2O2, ^tBuOOH and AcOOH, substrate TT (10 μM) and ROS (1 mM) were mixed in PBS buffer, pH=7.4 with DMSO (1%) under room temperature. For NaClO, TT (100 μM) and NaClO (1 mM) were mixed in PBS buffer, pH=7.4 with DMSO (1%) under room temperature. The rate of production of TTS was detected by UV-Vis spectrum (λ=339 nm) based on the decrease of TT. A pseudo-first order reaction was assumed; the second-order k constant (k2) was calculated using the method described below.
as §1

Structure (SMILES): COC(=O)c1ccc(=S)sc1 [TT, methyl 2-thioxo-2H-thiopyran-5-carboxylate]
- SSP4 fluorescence response (H2S2 formation) ([1]; 25 μM compound + 50 μM Na2S (H2S), PBS): No fluorescence
- SSP4 fluorescence response (sulfane sulfur formation) ([1]; 25 μM compound + 100 μM Cys): No fluorescence
- SSP4 fluorescence response (H2S2 formation) ([1]; 25 μM compound only): No fluorescence
- SSP4 fluorescence in HeLa cells ([2]; compound 50 μM + Na2S 100 μM): Obvious fluorescence in these samples was not observed
- SSP4 fluorescence in HeLa cells ([2]; compound only): did not show obvious fluorescence
- time to completion of TT to TTS oxidation (NMR) [3]: 24 h
- k2 (TT oxidation rate constant) ([4]; ROS AcOOH 1 mM, TT 10 μM): 13.9 M⁻¹ s⁻¹
- k2 (TT oxidation rate constant) ([4]; ROS H2O2 1 mM, TT 10 μM): 0.1 M⁻¹ s⁻¹
- k2 (TT oxidation rate constant) ([4]; ROS OCl^− (NaClO 1 mM), TT 100 μM, rate constant was estimated): >1.0 × 10^3 M^−1 s^−1 a
- k2 (TT oxidation rate constant) ([4]; ROS ^tBuOOH 1 mM, TT 10 μM): 0.01 M⁻¹ s⁻¹
- reaction rate constant (k2) of TT oxidation by H2O2 ([4]; UV-Vis, TT 10 μM, H2O2 1 mM, PBS pH 7.4, room temperature): 0.1 M⁻¹ s⁻¹
